{
  "source": "patent US10308658B2",
  "about": "“Salt of EGFR inhibitor, crystalline form and uses thereof” (SUNSHINE LAKE PHARMA CO., LTD., priority 2015, dated 2019)",
  "key": {"[1]": {"experiment": "Pharmacokinetic assay in beagle dogs", "assay_type": "in vivo", "conditions": "for AUC(0-inf) / AUC(0-t) / Cmax / Tmax / half-life: dog, in vivo, oral, capsule, 5 mg/kg as compound of Formula (II)", "experimental": "The pharmacokinetic properties of the compound of Formula (II) and crystalline form I of the invention were assessed in beagle dogs: each group having 3 beagle dogs was administered by oral in a capsule form. The dosage amount of crystalline form I was converted and determined according to the compound of Formula (II) at a dosage of 5 mg/kg."}, "EGFR": {"target": "EGFR (Homo sapiens, UniProt P00533)", "sequence (P00533 25-1210, species assumed)": "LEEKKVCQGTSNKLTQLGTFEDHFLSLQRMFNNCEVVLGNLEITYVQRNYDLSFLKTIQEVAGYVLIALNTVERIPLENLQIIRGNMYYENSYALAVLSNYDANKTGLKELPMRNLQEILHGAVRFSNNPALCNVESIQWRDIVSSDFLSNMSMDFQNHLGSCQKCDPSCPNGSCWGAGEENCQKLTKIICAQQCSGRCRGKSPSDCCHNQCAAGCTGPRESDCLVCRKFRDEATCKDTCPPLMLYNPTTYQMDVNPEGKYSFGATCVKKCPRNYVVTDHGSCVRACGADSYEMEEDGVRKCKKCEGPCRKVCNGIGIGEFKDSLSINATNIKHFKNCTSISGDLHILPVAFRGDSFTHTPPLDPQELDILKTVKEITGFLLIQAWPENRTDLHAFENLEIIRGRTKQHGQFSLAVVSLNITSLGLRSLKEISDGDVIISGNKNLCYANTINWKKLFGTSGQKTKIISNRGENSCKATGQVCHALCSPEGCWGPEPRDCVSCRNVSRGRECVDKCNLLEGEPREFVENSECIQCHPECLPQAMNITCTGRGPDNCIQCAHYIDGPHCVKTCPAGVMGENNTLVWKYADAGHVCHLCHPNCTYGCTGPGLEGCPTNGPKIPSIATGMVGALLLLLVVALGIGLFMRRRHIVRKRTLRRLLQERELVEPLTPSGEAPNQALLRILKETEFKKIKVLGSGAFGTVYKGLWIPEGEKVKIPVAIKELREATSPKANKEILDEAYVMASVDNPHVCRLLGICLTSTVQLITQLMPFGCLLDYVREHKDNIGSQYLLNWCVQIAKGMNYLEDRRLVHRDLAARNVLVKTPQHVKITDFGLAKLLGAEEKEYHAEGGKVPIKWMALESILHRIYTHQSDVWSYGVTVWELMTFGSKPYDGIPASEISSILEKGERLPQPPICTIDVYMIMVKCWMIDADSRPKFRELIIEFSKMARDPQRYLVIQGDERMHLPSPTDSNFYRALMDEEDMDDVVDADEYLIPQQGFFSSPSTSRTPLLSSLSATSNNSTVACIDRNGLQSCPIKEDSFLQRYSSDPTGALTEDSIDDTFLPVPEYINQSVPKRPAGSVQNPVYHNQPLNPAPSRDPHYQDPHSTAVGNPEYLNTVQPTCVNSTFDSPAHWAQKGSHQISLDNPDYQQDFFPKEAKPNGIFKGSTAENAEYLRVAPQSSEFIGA", "conditions": "as disclosed in CN 103102344 A; cited from earlier work"}, "[2]": {"experiment": "Stability test (high temperature, high humidity, illumination)", "assay_type": "physicochemical", "experimental": "(§1) The purity of the compound used in the stability test or accelerated test is measured by Aglient 1200 high performance liquid chromatography with VWD detector. The chromatographic column model is ZORBAX Extend-C18 (4.6×150 mm, […]), the detection wavelength is 250 nm, the flow rate is 1.0 mL/min, the column temperature is 40° C., and the mobile phase is 10 mM KH2PO4 (pH=7.5)-acetonitrile (v/v=55/45).\nAccording to “Guidelines for the stability test of raw materials and preparations” (Chinese Pharmacopoeia, 2015, 4th edition, general rules 9001), the stability of crystalline form I was tested as follows:\nAppropriate amount of sample was taken into the flat weighing bottle to form a thin layer of no more than 5 mm thick. […] The content of impurities was tested by HPLC."}, "[3]": {"experiment": "Hygroscopic test (Chinese Pharmacopoeia 2010, appendix XIX J)", "assay_type": "physicochemical", "conditions": "25° C.±1° C., relative humidity 80%±2%, 24 h; for Hygroscopic weight gain: dimethanesulfonate monohydrate", "source_text": "1. Instruments: one hundred thousandth electronic balance, type: XP205DR, manufacturer: Mettler.\n2. Test method deriving from Chinese Pharmacopoeia 2010, appendix XIX J: Guideline on pharmaceutical hygroscopic test. Specific method is described as follows:\n1) Placing a dried glass-stoppered, weighing bottle (outer diameter: 50 mm, height: 15 mm) in a thermostatic drier with saturated aqueous ammonium chloride or ammonium sulfate solution in the bottom at the previous day of the test maintaining the temperature at 25° C.±1° C., and the glass-stoppered, weighing bottle was weighed precisely.\n2) Taking and weighing an appropriate amount of the sample (m1), and placing the sample into the weighing bottle with thickness of about 1 mm.\n3) Opening the weighing bottle, and placing the glass stopper with the opened weighing bottle in a constant temperature and humidity condition for 24 h.\n4) Sealing the weighing bottle with glass stopper, and the weighing bottle sealed with glass stopper was weighed precisely (m2). The percentage (%) of weight gain was calculated. Percentage (%) of weight gain=(m2−m1−m0)/m1×100%\n5) The hygroscopic features and definition of hygroscopic weight gain are summarized in table 3 (deriving from Chinese Pharmacopoeia 2010, appendix XIX J: Guideline on pharmaceutical hygroscopic test, test conditions: 25° C.±1° C., Relative Humidity 80%±2%)."}, "[4]": {"experiment": "Accelerated test (40±2° C./75%±5% RH, six months)", "assay_type": "physicochemical", "conditions": "for Impurities (total impurities, %) / Moisture (%): 40±2° C./75%±5% RH", "experimental": "as §1\nAccording to “Guidelines for the stability test of raw materials and preparations” (Chinese Pharmacopoeia, 2015, 4th edition, general rules 9001), the accelerated test of crystalline form I was practiced as follows:\nMedicinal low density polyethylene bag (the size was 140*120*0.104 mm^3, the manufacture was Tianjin Litian Medicine Packing Material Co., Ltd, and the batch number was 121238.) was used as inner package material, and the bag was sealed by nylon cable ties; and paper tube was used as a packaging material. The packaged samples were placed in a constant temperature and humidity test chamber (40±2° C./75%±5% RH) for six months for accelerated test. Sampling at the end of 1, 2, 3 or 6 months for testing the moisture content of the sample by using karl fischer titration, the content of impurities was measured by HPLC."}, "[5]": {"conditions": "oral capsule, individual data analysis"}},
  "data": [
    {"compound": "COc1cc2ncnc(Nc3ccc(F)c(Cl)c3)c2cc1OCCCN1C[C@@H]2OCCO[C@@H]2C1", "note": "[Compound of Formula (II), 4-[(3-chloro-4-fluorophenyl)amino]-7-methoxy-6-[3-[(1R,6S)-2,5-dioxa-8-azabicyclo [4.3.0]nonan-8-yl]propoxy]quinazoline]", "values": [
      {"measurement": "AUC(0-inf)", "setting": "[1]", "result": 886, "unit": "ng·h/mL"},
      {"measurement": "AUC(0-t)", "setting": "[1]", "result": 825, "unit": "ng·h/mL"},
      {"measurement": "Cmax", "setting": "[1]", "result": 125, "unit": "ng/mL"},
      {"measurement": "Tmax", "setting": "[1]", "result": 1.67, "unit": "h"},
      {"measurement": "half-life", "setting": "[1]", "result": 3.62, "unit": "h"},
      {"measurement": "inhibition activity against EGFR", "setting": "EGFR", "result": "high inhibition activity"}
    ]},
    {"compound": "COc1cc2ncnc(Nc3ccc(F)c(Cl)c3)c2cc1OCCCN1C[C@@H]2OCCO[C@@H]2C1.CS(=O)(=O)O.CS(=O)(=O)O.O", "note": "[Crystalline form I, 4-[(3-chloro-4-fluorophenyl)amino]-7-methoxy-6-[3-[(1R,6S)-2,5-dioxa-8-azabicyclo[4.3.0]nonan-8-yl]propoxy]quinazoline dimethanesulfonate monohydrate]", "values": [
      {"measurement": "Impurities (total impurities, %)", "setting": "[2]; 0 day", "result": 0.13, "unit": "%"},
      {"measurement": "Impurities (total impurities, %)", "setting": "[2]; High humidity 25° C. ± 2° C./92.5% RH, 5 days", "result": 0.14, "unit": "%"},
      {"measurement": "Impurities (total impurities, %)", "setting": "[2]; High humidity 25° C. ± 2° C./92.5% RH, 10 days", "result": 0.16, "unit": "%"},
      {"measurement": "Impurities (total impurities, %)", "setting": "[2]; High temperature 60° C. ± 2° C., 5 days", "result": 0.12, "unit": "%"},
      {"measurement": "Impurities (total impurities, %)", "setting": "[2]; High temperature 60° C. ± 2° C., 10 days", "result": 0.14, "unit": "%"},
      {"measurement": "Impurities (total impurities, %)", "setting": "[2]; Illumination 4500 ± 500 lx, 5 days", "result": 0.13, "unit": "%"},
      {"measurement": "Impurities (total impurities, %)", "setting": "[2]; Illumination 4500 ± 500 lx, 10 days", "result": 0.13, "unit": "%"},
      {"measurement": "Impurities (total impurities, %)", "setting": "[2]; Illumination 4500 ± 500 lx, 15 days", "result": 0.14, "unit": "%"},
      {"measurement": "change of impurity", "setting": "[2]; high temperature 10 days, high humidity 10 days, illumination 15 days", "result": "no obvious change"},
      {"measurement": "quality (stability)", "setting": "[2]; high temperature, high humidity or illumination condition", "result": "stable"},
      {"measurement": "Hygroscopic feature", "setting": "[3]", "result": "almost no hygroscopicity"},
      {"measurement": "Hygroscopic weight gain", "setting": "[3]", "result": 0.074, "unit": "%"},
      {"measurement": "Hygroscopic weight gain", "setting": "[3]; listed as crystalline form I", "result": 0.074, "unit": "%"},
      {"measurement": "AUC(0-inf)", "setting": "[1]", "result": 1470, "unit": "ng·h/mL"},
      {"measurement": "AUC(0-t)", "setting": "[1]", "result": 1450, "unit": "ng·h/mL"},
      {"measurement": "Cmax", "setting": "[1]", "result": 231, "unit": "ng/mL"},
      {"measurement": "Tmax", "setting": "[1]", "result": 1.33, "unit": "h"},
      {"measurement": "half-life", "setting": "[1]", "result": 3.65, "unit": "h"},
      {"measurement": "Tmax time compared with compound of Formula (II)", "setting": "[1]; oral capsule", "result": "earlier than compound of Formula (II)"},
      {"measurement": "absorption compared with compound of Formula (II)", "setting": "[1]; [5]", "result": "faster absorption"},
      {"measurement": "exposure level compared with compound of Formula (II)", "setting": "[1]; [5]", "result": "higher exposure level"},
      {"measurement": "Impurities (total impurities, %)", "setting": "[4]; 0 day", "result": 0.18, "unit": "%"},
      {"measurement": "Moisture (%)", "setting": "[4]; 0 day", "result": 2.79, "unit": "%"},
      {"measurement": "Impurities (total impurities, %)", "setting": "[4]; One month", "result": 0.18, "unit": "%"},
      {"measurement": "Moisture (%)", "setting": "[4]; One month", "result": 2.92, "unit": "%"},
      {"measurement": "Impurities (total impurities, %)", "setting": "[4]; Six months", "result": 0.17, "unit": "%"},
      {"measurement": "Moisture (%)", "setting": "[4]; Six months", "result": 2.86, "unit": "%"},
      {"measurement": "Impurities (total impurities, %)", "setting": "[4]; Three months", "result": 0.18, "unit": "%"},
      {"measurement": "Moisture (%)", "setting": "[4]; Three months", "result": 3.09, "unit": "%"},
      {"measurement": "Impurities (total impurities, %)", "setting": "[4]; Two months", "result": 0.17, "unit": "%"},
      {"measurement": "Moisture (%)", "setting": "[4]; Two months", "result": 2.87, "unit": "%"},
      {"measurement": "quality (stability)", "setting": "[4]; accelerated test condition for six months, low density polyethylene bag as inner package", "result": "stable"}
    ]}
  ]
}
